From patent US9567318B2, “Substituted pyrimidine compounds and uses thereof” (Memorial Sloan-Kettering Cancer Center, priority 2009, dated 2017)

Assays:
recombinant human Hsp70 = target: T1, recombinant human Hsp70 (Homo sapiens, UniProt P0DMV8); assay: Hsp70 competition assay using YK55 beads, recombinant protein; type: binding; conditions: compared with MRC-5 Hsp70s
T1 construct: purchased Stressgen
Description: (§1) FIG. 14. YK5 has a higher affinity for tumor Hsp70s and selectively kills cancer cells. (a-c) Cells were treated with the indicated concentrations of inhibitors for the times presented, and metabolically viable cells by Alamar blue uptake as described in Methods (a). Molecular markers of apoptosis (PARP and caspase-3 cleavage) were analyzed in cells treated for 24 h with indicated concentrations of inhibitors, by western blotting (b, c). Morphology of cells treated for 24 h with vehicle or the indicated inhibitors was analyzed by light microscopy (c). (d) Extracts (500 μg) were incubated overnight with beads containing D-biotin (75 μM) or the indicated concentrations of YK55 added to 50 μl streptavidin beads. HS=heat shocked. (e) SKBr3 (200 μg) and MRC-5 (400 μg) extracts and recombinant human Hsp70 (2 μg) were incubated for 3 h with the indicated concentrations with YK5, followed by precipitation of Hsp70 complexes on YK55-beads (50 μM YK55 added to 50 μl streptavidin beads). Data obtained from three independent experiments were graphed (right). Points, mean; bars, s.d.
(§2) In a second experiment, the ability of soluble YK5 to compete YK55-binding to normal and cancer cell Hsp70 species were tested (FIG. 14e). […] Interaction of YK5 was even weaker with recombinant human Hsp70 (FIG. 14e).
(§3) Hsp70 Competition Assay Using the YK55 Beads. […]

359 kinases = assay: Kinase screen (scanMAX, Ambit); type: binding
Description: FIG. 6. YK5 inhibits core biochemical functions of Hsp70s and disrupts the Hsp90/Hsp70 interaction. a) Refolding of denatured luciferase by Hsc70 and DJA2 at 30° C. was measured for the indicated times in the presence of YK5 (100 μM) or vehicle (left), or at 60 min in the presence of indicated concentrations of YK5 (right). b) Hsc70 ATPase rates were measured for reactions at 30° C. with the indicated combinations of Hsc70 and co-chaperones in the presence of vehicle (DMSO) or YK5 (100 μM). ADP production was monitored by thin layer chromatography separation of radiolabeled ADP from ATP and phosphorimaging analysis (lower). The data are consistent with those obtained from multiple repeat experiments (n≧2). c,d) SKBr3 cells were treated for 24 h with vehicle or indicated concentrations of YK5 (c) or for the indicated times with YK5 (10 μM) (d). Proteins isolated with anti-Hsp90 and Hsp70s antibodies (IP: Hsp90 or Hsp70), or present in the cell extract (Lysate) were analyzed by WB. […] Proteins were applied to a native gel and analyzed by immunoblotting. […]
Kinase Screen. […] The kinase concentration in the eluates was measured by qPCR. KINOMEscan's selectivity score (S) is a quantitative measure of compound selectivity. It is calculated by dividing the number of kinases that bind to the compound by the total number of distinct kinases tested, excluding mutant variants. […]

[1] = test system: MDA-MB-468, SKBr3, LNCaP, MOLM-13, Kasumi-1, OCI-Ly7 and HuH7 cells; assay: Growth inhibition in a panel of cancer cells; type: cell-based, human; conditions: growth over 72 h
Description: Tested were MDA-MB-468 triple-negative breast cancer cells, SKBr3 HER2+breast cancer cells, LNCaP mAR+prostate cancer cells, MOLM-13 and Kasumi-1 acute myeloid leukemia cells, OCI-Ly7 diffuse large B-cell lymphoma cells and HuH7 hepatocellular carcinoma cells. […] In cancer cells, half growth inhibitory concentrations ([…]) recorded for YK5 were in high agreement with its potency to degrade Hsp90 onco-clients.
Growth Inhibition Assay. Antiproliferative effects of inhibitors were evaluated using the dye Alamar blue. This reagent offers a rapid objective measure of cell viability in cell culture, and it uses the indicator dye resazurin to measure the metabolic capacity of cells, an indicator of cell viability. Briefly, cells were plated on Costar 96-well plates. For attached cells (such as SKBr3, MDA-MB-468, LNCaP, MRCS), 8,000 cells/well were used. For suspension cells (such as MOLM-13, Kasumi-1, OCI-Ly7, PBL), 20,000 cells/well were plated. Cells were allowed to incubate for 24 h at 37° C. before drug treatment. Drugs were added in triplicates at the indicated concentrations, and the plate was incubated for 72 h. Alamar Blue (440 μM) was added, and the plate read 6 h later using the Analyst GT (Fluorescence intensity mode, excitation 530 nm, emission 580 nm, with 560=dichroic mirror). Results were analyzed using the Softmax Pro software. The percentage cell growth inhibition was calculated by comparing fluorescence readings obtained from treated versus control cells, accounting for initial cell population (time zero).

[2] = test system: Hsp70s expressed in the MRC-5 cells; assay: Hsp70 competition assay using YK55 beads, MRC-5 extracts; type: binding, human; conditions: MRC-5 normal cell extracts
Description: as §1, §2, §3

T1 sequence (P0DMV8 whole entry): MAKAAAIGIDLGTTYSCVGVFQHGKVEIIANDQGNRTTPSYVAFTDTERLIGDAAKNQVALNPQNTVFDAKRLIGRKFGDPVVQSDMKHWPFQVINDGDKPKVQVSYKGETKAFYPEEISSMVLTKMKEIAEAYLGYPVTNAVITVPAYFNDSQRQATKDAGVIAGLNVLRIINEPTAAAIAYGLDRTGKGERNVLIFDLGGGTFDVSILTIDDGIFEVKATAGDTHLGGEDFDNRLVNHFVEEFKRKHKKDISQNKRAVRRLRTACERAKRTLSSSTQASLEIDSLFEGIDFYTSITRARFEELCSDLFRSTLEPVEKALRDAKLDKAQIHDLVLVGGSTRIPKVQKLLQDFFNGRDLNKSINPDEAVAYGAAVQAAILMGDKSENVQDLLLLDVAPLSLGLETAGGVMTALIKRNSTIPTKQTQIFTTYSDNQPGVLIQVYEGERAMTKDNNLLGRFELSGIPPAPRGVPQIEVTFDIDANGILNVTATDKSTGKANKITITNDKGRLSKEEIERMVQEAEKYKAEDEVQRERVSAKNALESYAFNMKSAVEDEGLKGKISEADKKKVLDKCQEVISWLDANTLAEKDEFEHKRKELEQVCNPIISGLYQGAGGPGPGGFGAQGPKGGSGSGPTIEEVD

For C=CC(=O)Nc1cc(N)nc(Sc2c(OC)nc(N3CCN(C)CC3)nc2OC)n1 [YK5, N-(6-amino-2-(4,6-dimethoxy-2-(4-methylpiperazin-1-yl)pyrimidin-5-ylthio)pyrimidin-4-yl)acrylamide], the “interaction with recombinant human Hsp70” value (recombinant human Hsp70) was “even weaker”, the “activity against 359 kinases” value (359 kinases; 10 μM) was “inert” and the “c-Met in the kinase screen” value (359 kinases; TREEspot interaction map) was “potential low affinity kinase hit”. For the same molecule, the “growth of all tested cancer cells” value [1] was “inhibited the growth of all tested cancer cells” and the “concentration necessary to observe displacement of Hsp70s from YK55-beads” value [2] was “exceeded 200 μM”.
